Experimental data: patent publication US9365851B2, “Spalt-like transcription factor 4 (SALL4) and uses thereof” (National University of Singapore, priority 2011, dated 2016)
Read-outs that look alike come from different tables or passages of the source.

How the values were obtained:
c-Myc = c-Myc protein expression in SNU-398 cells; type: cell-based, human
Experimental: Also tested was whether wt peptide could affect genes that were known to be activated by SALL4, such as c-Myc. SNU-398 cells treated with wt or Scr peptide were evaluated for c-Myc protein expression. No change was observed among SNU-398 cells that were not treated or treated with either wt, Scr or TSA. When combined, the observation on the biological effects of the peptide treatment and the expression of Pten/Akt pathway in these cells, it was noticed that the wt peptide and its role in cell death promotion was correlated to its effect on the expression levels of Pten/Akt.

primary human AML cells = experiment: Viability / cell death of primary AML cells in culture (Annexin V/PI flow cytometry); type: cell-based; conditions: for cell death rate: 96 h after first treatment, Chariot (Example 1)
Experimental: Whether a therapeutic effect could be achieved by using this wt peptide on primary AML samples was then tested. Ninety-six hours after the first treatment of peptides (wt, Mut, or Scr) or TSA in the primary AML cells collected from a patient, the remaining alive cells were measured by FACS analysis using Annexin V/PI staining. During the treatment the wt and control peptides (Mut or Scr) were re-introduced twice at the 24-hour and the 48-hour time points along with the Chariot (Active Motif) transfection agent. A significant effect of the wt peptide on the cell viability of primary AML cells was observed. While there was a 56% cell death rate with wt peptide treatment at the end of the fourth day, the cell death rate was only 35% in the non-treated or treated with the control peptide, and the cell death rate was 44% in cells treated with TSA (FIG. 5).
Three frozen primary AML patient samples were used for this study, and were obtained from Brigham and Women's Hospital at Boston, Mass., USA, under approved IRB protocol (No. 2011-P-000096/1). Culture conditions were adapted from a published protocol 28-31. In brief, the frozen AML samples were incubated in RPMI1640 medium without serum for 1 to 3 h after thawing and DNA fragments from dead cells were removed by washing. After three washes with the medium, 1×10^6 cells per well of 12-well plate were maintained in 1 ml of serum-free medium (StemSpan-H3000, Catalogue #09800, StemCell Technologies) supplied with StemSpan CC 100 cytokine cocktail (Catalogue #02690, StemCell Technologies) that supports 40-50% viability at 72 hours postthaw culturing based on our experience. These cells were then used for the down-regulation of SALL4 (see details below) and peptide treatment experiments.
SALL4 is critical for leukemic cell survival in the AML cell line NB4 (Yang, et al., Blood, 112:805-813 (2008)). Asked herein was whether this is also the case for primary human AML samples. Three SALL4/PTEN-expressing AML samples were selected for experiments in which cells were first tested under culture conditions that maintain/promote viability of AML cells 28-31. The SALL4-specific shRNA that has been validated in previous studies (Yang et al., PLoS One, 5:e10766 (2010); Yang, et al., Blood, 112:805-813 (2008); Yang et al., PNAS USA, 104:10494-10499 (2007)) was utilized in these AML patient samples (FIG. 11A). 48 hours after transduction, the viability of cells was determined by flow cytometry after staining with Annexin V and propidium iodide (PI). Live cells are Annexin V negative and PI negative, the double negative population. […] Furthermore, in a xenotransplant model, increased survival of leukemic cell recipient NOD/SCID/IL2rγ-null (NSG) mice following knocking down SALL4 expression in the primary AML samples was observed (FIG. 11C). Fatal AML with onset ranging from one to three months developed in all recipients receiving AML cells transduced with a scrambled control shRNA (n=7), while only 2 out of 6 mice receiving SALL4 shRNA-treated primary AML developed leukemia. While the median survival of scrambled shRNA control recipient mice (n=7) was 33 days, the median survival of SALL4 shRNA recipient mice (n=6) was 109 days (P=0.01). The transplanted leukemia disease was characterized by immature blasts with human CD45 expression in peripheral blood, bone marrow, and tissues such as liver and spleen (FIG. 11D to 11F).
Next tested was whether a therapeutic effect could be achieved by using the wild type peptide in primary human AML samples. The same SALL4/PTEN expressing primary AML samples were selected for experiments under the same culture conditions as mentioned above. Leukemic cells were subjected to three treatment regimes: peptide (wild type or scrambled), peptide plus PTEN inhibitor, or HDAC inhibitor (TSA). To assist peptide delivery into cells, a carrier agent, Pep-1 was used for all the experiments, and control treated cells were given pep-1 alone (mock). […]

| Compound | c-Myc protein expression (c-Myc) | cell viability (primary human AML cells) | cell death rate (primary human AML cells; primary AML, Annexin V/PI) | cell viability (primary human AML cells; primary AML, fourth day, Pep-1 carrier, untreated set as 100 (Example 2)) | viability after SALL4 knock-down (primary human AML cells) | increase in cell apoptosis and cell death (primary human AML cells; primary AML, Annexin V/PI, after SALL4 knock-down) | cell viability (primary human AML cells; human, 96 h) |
| --- | --- | --- | --- | --- | --- | --- | --- |
| Scr peptide: same 12 amino acids as the wt peptide, but in a scrambled sequence; negative control (SRMRQKIHPKIQ) [reference compound] | No change | over 97% | the same value as the untreated | – | – | – | – |
| CC(/C=C/C(=O)NO)=C\[C@@H](C)C(=O)c1ccc(N(C)C)cc1 [TSA, Trichostatin A, reference compound] | No change | – | 44% | 54.7% | – | – | – |
| GATGCCTTGAAACAAGCCAAGCTACCTCA (chemistry not given here) [compound 7412, SALL4 shRNA used in primary AML cells] | – | – | – | – | 80.9% | 2 fold | – |
| H-MSRRKQAKPQHI-OH [wt peptide, MSRRKQAKPQHI] | No change | – | 56% | – | – | – | 55.3% |
